The values that follow come from the METLIN SMRT retention time set (Domingo-Almenara et al. 2019).

A short description of this data set: gradient 5% acetonitrile 3 min, to 50% in 2 min, to 85% in 15 min, held 3 min, 100 µL/min. The following applies: column: Zorbax Extend-C18 2.1 x 50 mm; eluents: water / acetonitrile, 0.1% formic acid. The method in brief:
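A Zorbax Extend-C18 column (2.1 × 50 mm, 1.8 μm) run at 100 μL/min with water and acetonitrile, both containing 0.1% formic acid, separated mixtures of ~100 pure standards. The HPLC was coupled to a quadrupole time-of-flight mass spectrometer operated in positive and negative ionization mode, with dead and dwell volumes of 40 μL and 900 μL. Each retention time was taken from a computationally picked adduct peak that was then manually inspected.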
For the molecule `Cc1nccn1C1CN(C(=O)CCCc2c[nH]c3ccccc23)C1`, the RP-LC retention time was 611 s.
The molecule `CCn1cc(-c2ccc(Cl)cc2)cc1C(=O)NCC1CCCO1` (stereo not given) had an RP-LC retention time of 1010 s.
For `CC(C)S(=O)(=O)c1ccc(C(=O)Nc2onc3c2CCCC3)cc1`, the RP-LC retention time worked out at 732 s.
`CC(=O)Nc1ccc(S(=O)(=O)N2CCC3(CC2)Nc2cc(F)ccc2-n2cccc23)cc1`: the RP-LC retention time is 967 s.
As for `COc1ncc(C(=O)NCc2ccc(Cl)cc2)cn1`, the RP-LC retention time came out at 751 s.
`COc1ccc(OC)c(NC(=O)N2CCc3nc[nH]c3C2)c1` had an RP-LC retention time of 580 s.
Take `CCOc1ccc(NC(=O)c2oc3ccc(Cl)cc3c2C)c2cccnc12`: the RP-LC retention time amounted to 789 s.
Under `CC(NC(=O)CN1C(=O)C2CCCCN2c2ccc(S(=O)(=O)N(C)C)cc21)c1ccccc1` (stereo not given) stands 902 s.
`Cc1cnc(-c2ccccc2)n1CCNS(=O)(=O)N(C)C`: the RP-LC retention time came to 572 s.
As to `CCOC(=O)c1nc(Nc2cc(Cl)c(OC)cc2OC)c2ccccc2n1`, the RP-LC retention time came out at 964 s.
`CCCCn1c(=O)c2ccccc2n(Cc2nc(-c3ccc(OC(F)(F)F)cc3)no2)c1=O` had an RP-LC retention time of 1280 s.
For `CCOC(=O)c1noc2ncnc(NC3CCN(Cc4ccccc4)CC3)c12`, the RP-LC retention time was 616 s.
Under `O=C1N(c2ccccc2)CC12CCN(S(=O)(=O)c1ccccc1)CC2` stands 957 s; under `CCOC(=O)C1CCCN(C(=O)CCC(=O)N2CCCn3nc(-c4cn(C)c5ccccc45)cc32)C1` (stereo not given), 803 s.
`CCN1CCN(C(=O)Nc2ccc(Br)cc2)c2cccnc21` yielded an RP-LC retention time of 666 s.
`COc1ccc(C2(C(=O)NCCC3CCN(C(=O)Nc4ccccc4F)CC3)CC2)cc1` had an RP-LC retention time of 837 s.
Regarding `CCN(CC)S(=O)(=O)c1ccc(NC(=O)N2CCCC(C(=O)Nc3cccc(Cl)c3)C2)s1` (stereo not given), the RP-LC retention time was found to be 996 s.
Molecule `COc1ccc(OC)c(NC(=O)CCc2c(-c3ccc(F)cc3)nc3ccccn23)c1` had an RP-LC retention time of 665 s.
For the molecule `CC(=O)N1CCc2cc(C(=O)N3CCCCCC3)ccc21`, the RP-LC retention time was determined as 723 s.
The molecule `O=c1cccnn1CCNS(=O)(=O)c1ccc(OC(F)(F)F)cc1` had an RP-LC retention time of 711 s.
`O=c1c2cc(-c3ccccc3)nn2ccn1Cc1noc(CN2CCCCCC2)n1` yielded an RP-LC retention time of 671 s.
With `COc1ccc(NC(=O)c2nnc(CSCC(=O)N3CCN(c4ccccn4)CC3)s2)cc1`, the RP-LC retention time was 629 s.
Molecule `COc1ccc(OCc2noc(CNC(=O)Nc3cc(OC)c(OC)c(OC)c3)n2)cc1` showed an RP-LC retention time of 743 s.
In turn, `O=C(NC1CC1)C1CCN(Cc2cc3ccccc3n2Cc2ccc(F)cc2)CC1` returned an RP-LC retention time of 701 s.
Turning to `NC(=O)c1cccn1Cc1ccccc1Cl`, the RP-LC retention time was 804 s.
In turn, `COC(=O)c1ccc2c(=O)n(Cc3ccc(OC)cc3)c(N3CCOCC3)nc2c1` registered an RP-LC retention time of 943 s.
Turning to `COc1cccc(NC(=O)N2CCC3(CC2)NC(=O)c2ccccc2O3)c1`, the RP-LC retention time worked out at 745 s.
The molecule `Cc1cccc(N(C)C(=O)C(C)n2cnc3nc4c(cc3c2=O)CCCC4)c1` (stereo not given) displayed an RP-LC retention time of 762 s.
Molecule `COCc1c(C(=O)O)nnn1Cc1ccc(OC)c(F)c1` gave an RP-LC retention time of 658 s.
Molecule `O=C(C1CC(=O)N(c2ccc3c(c2)CCN3C(=O)C2CC2)C1)N1CCCCCC1` (stereo not given) displayed an RP-LC retention time of 750 s.
`CC(C)NC(=O)CCc1c(-c2ccccc2)nc2ccccn12` had an RP-LC retention time of 595 s.
Take `CCCNC(=O)C1CCCN(c2ccc(SCC(=O)Nc3cccc(F)c3)nn2)C1` (stereo not given): the RP-LC retention time is 670 s.
With `Fc1ccccc1-c1noc(-c2nc(-c3cnccn3)no2)n1`, the RP-LC retention time came out at 877 s.
As for `O=C(c1nnc(-c2ccc(S(=O)(=O)N3CCOCC3)cc2)o1)N1CCCCC1`, the RP-LC retention time worked out at 785 s.
The molecule `Cc1ccc(NC(=O)N2CCC(n3cnnc3C3CC3)C2)cc1Cl` (stereo not given) showed an RP-LC retention time of 672 s.
Molecule `COc1ccc(Cl)cc1-c1nc(C2CC(=O)N(c3ccc(F)cc3)C2)no1` (stereo not given) gave an RP-LC retention time of 1030 s.
`Cc1nnc(-c2sccc2C)o1`: the RP-LC retention time worked out at 742 s.
With `COc1cc(Cl)ccc1-c1nc(-c2cccc(-c3ccn[nH]3)c2)no1` the figure was 1060 s; with `CCNC(=O)N(CC(=O)N1CCc2sccc2C1COc1ccccc1)CC1CC1` (stereo not given), 857 s.
For the molecule `CCn1cc(C2=CCN(S(=O)(=O)c3cccc(Cl)c3)CC2)c2cccnc21`, the RP-LC retention time was determined as 1070 s.
In turn, `NS(=O)(=O)c1ccc(CCNC(=O)c2ccc3c(c2)NC(=O)C2CCCCN32)cc1` (stereo not given) displayed an RP-LC retention time of 672 s.
In turn, `CCc1ccc(NC(=O)N2CCC(CN3CCCC(C)C3)CC2)cc1` (stereo not given) yielded an RP-LC retention time of 662 s.
Turning to `COCc1c(C(=O)O)nnn1-c1ccc2c(c1)OCO2`, the RP-LC retention time amounted to 648 s.
Regarding `Cc1ccc(OCc2nnc3sc(C4COc5ccccc5O4)nn23)cc1` (stereo not given), the RP-LC retention time stood at 1010 s.
Under `Cc1ccc(NS(=O)(=O)c2cc(-c3[nH]ncc3C(=O)N3CCCC3)oc2C)cc1C` stands 776 s; under `Cn1c(=O)n(CC(=O)N2CCCCC2)c(=O)c2cnc(-c3ccc(Cl)cc3)nc21`, 1050 s; under `CC(C)c1nnc(C2CN(C)CC23CCN(Cc2cccc(C(F)(F)F)c2)CC3)o1` (stereo not given), 578 s.
The molecule `Cc1noc(C)c1CNC(=O)c1cc(Cl)ccc1F` showed an RP-LC retention time of 778 s.
Under `COc1cc(OC)c(NC(=O)NC2CCN(c3ccc(F)cc3)C2=O)cc1Cl` (stereo not given) stands 854 s; under `Cc1cc(C)n2c(Nc3cccc(C(F)(F)F)c3)c(-c3ccc(F)cc3)nc2n1`, 829 s; under `CCc1ccc(NC(=O)N2CCN(c3cnn4c(C)nnc4c3)CC2)cc1`, 649 s.
On to `CC(C)c1noc(COC2CCCN(C(=O)NCc3ccco3)C2)n1` (stereo not given), for which the RP-LC retention time turned out to be 774 s.
With `CCc1nc2cc(CNC(=O)Cc3ccccc3C)ccc2n1C`, the RP-LC retention time is 618 s.
`O=C(O)C1CCCCC1C(=O)NCCc1csc(-c2cccnc2)n1` (stereo not given) had an RP-LC retention time of 593 s.
On to `CN1C(=O)C(CC(=O)Nc2cccnc2)=C2CCCCC21` (stereo not given), for which the RP-LC retention time was 564 s.
The molecule `CCN1C(=O)COc2cc(-c3noc(C(=O)N4CCN(c5cccc(Cl)c5)CC4)n3)ccc21` came in with an RP-LC retention time of 1140 s.
Under `CCOc1ccc(NC(=O)Nc2nccn(-c3ccccc3OC)c2=O)cc1` stands 935 s; under `CC1CCN(S(=O)(=O)N2CCC(C(=O)N3CCC(Cc4nncn4CC4CC4)CC3)CC2)CC1`, 751 s; under `Cc1nn(-c2ccccc2)cc1C(=O)N1CCC(CC(=O)N2CCOCC2)CC1`, 669 s.
With `CC(=O)NCc1c(-c2ccc(Cl)cc2)nc2n1CCS2` the figure was 568 s.
In turn, `CCOc1ccccc1CN1CCc2nc(N3CCN(c4ncccn4)CC3)ncc2C1` registered an RP-LC retention time of 672 s.
As for `O=C(Cn1c(CN2CCCCCC2)nc2ccccc21)N1CCOCC1`, the RP-LC retention time is 596 s.
Under `COC(=O)c1ccc(-c2nc3cnccn3c2Nc2cccc(C(F)(F)F)c2)cc1` stands 945 s; under `CC1(C(=O)NCc2ccc(F)cc2)CCCN(C(=O)NC2COc3ccccc3C2)C1` (stereo not given), 875 s.
For `CCOC(=O)N1CCN(c2ncc(S(=O)(=O)c3ccc(C)c(C)c3)c(N)n2)CC1`, the RP-LC retention time came to 891 s.
The molecule `CCOc1ccc(CNC(=O)C2CCN(C(=O)C3Sc4ccccc4NC3=O)CC2)cc1` (stereo not given) gave an RP-LC retention time of 743 s.
With `Cc1cccc(-c2ncccc2CNS(=O)(=O)c2ccccc2C)c1` the figure was 725 s; with `CCOCC(=O)NCc1ccc2c(c1)CCCN2C(=O)C1CCC1`, 750 s; with `O=C(Nc1ccc(Br)cc1)C1CCCN(c2nccnc2Oc2ccccc2)C1` (stereo not given), 1140 s.
With `O=C(O)c1cc(I)ccc1NC(=O)[C@H](Cc1ccccc1)NCc1ccccc1` the figure was 863 s; with `CCc1nc(-c2csc(S(=O)(=O)N3CCC(C(=O)NC4CCCCC4)CC3)c2)no1`, 955 s.
The molecule `Cc1cc(C)cc(NS(=O)(=O)c2c(C)sc(C)c2-c2n[nH]c(C)c2C)c1` returned an RP-LC retention time of 1110 s.
The molecule `CCCN1C(=O)c2c(C(=O)NCc3cccc(F)c3)ncn2CC1(C)C(=O)NC1CCCC1` (stereo not given) yielded an RP-LC retention time of 821 s.
`O=c1n(Cc2cccc(Br)c2)nc2c(S(=O)(=O)N3CCc4ccccc4C3)cccn12`: the RP-LC retention time turned out to be 1030 s.
The molecule `O=C(CN1CCCC1=O)NCc1ccc(F)c(Cl)c1` returned an RP-LC retention time of 667 s.
Molecule `O=C(Cc1ccsc1)Nc1ccc(N2CCN(c3ccccc3)C2=O)nc1` had an RP-LC retention time of 811 s.
Regarding `Cc1ccc(-c2ccc(=O)n(CCc3nc(-c4ccccc4)no3)n2)cc1C`, the RP-LC retention time was determined as 1050 s.
In turn, `COc1ccccc1CNC(=O)C1CCCN1S(=O)(=O)c1ccc2c(c1)C(C)(C)C(=O)N2C` (stereo not given) had an RP-LC retention time of 843 s.
For `O=C(Cc1ccccc1)Nc1nnc(CCSCCc2nnc(NC(=O)Cc3ccccc3)s2)s1`, the RP-LC retention time was 933 s.
`COCCCNC(=O)c1nc(Nc2ccc(C)cc2)c2ccccc2n1` displayed an RP-LC retention time of 709 s.
